Reference: US8017649B2, “Flavonoid compounds and uses thereof” (Howard Florey Institute of Experimental Physiology and …, priority 2005, dated 2011)
Entries after “also recorded” stand apart in the source; their conditions may differ.

Assays:
anaesthetised rats = test: Arterial pressure and heart rate in anaesthetised rats after intravenous injection; assay type: in vivo, rat; conditions: for change in heart rate (HR) / change in mean arterial pressure (MAP): intravenous, anaesthetised rats
Experimental: A unit dosage of an aqueous solution of 3-hydroxyflavone-3-hemiadipate (15) was administered to a group of male anesthetized Sprague Dawley rats intravenously and the blood pressure monitored over a period of time.
Male Sprague-Dawley rats (250-350 g) were anaesthetised with pentobarbitone sodium (60 mg kg^−1, ip). The trachea was isolated and cannulated with polyethylene tracheal tube (I.D. 2.0 mm), and the rat was allowed to breathe spontaneously.
The right carotid artery was cannulated and connected with a heparinised saline filled cannula (O.D. 0.75, I.D, 0.58 mm) and connected to a pressure transducer. Mean and phasic arterial pressure were continuously measured and recorded on a polygraph. The heart rate, was derived from the phasic arterial pressure using a tachometer.
DiOHF3HA ([…]) was injected intravenously, allowing at least 30 min between injections, and the peak changes in mean arterial pressure and heart rate measured. […] In a separate group of experiments ACh (0.3 mg/kg iv) and phenylephrine (PE, […]) were injected before and 30 minutes after DiOHF3HA (3 mg/kg iv), a time when arterial pressure and heart rate had returned to control levels. […]

anaesthetised sheep = test: Myocardial ischaemia and reperfusion injury in anaesthetised sheep; assay type: in vivo; conditions: for effect on infarct size / cardioprotection: i.v. in aqueous solution after 30 min of ischaemia; for infarct size normalized to the area at risk (IS/AR): lower dose: DiOHF3HA 2.7 mg/kg, DiOHF 2 mg/kg i.v.
Experimental: The ability of the synthetic flavonol, 3′,4′ dihydroxy flavonol adipate (DiOHF3HA) to prevent myocardial ischaemia and reperfusion injury in anaesthetised Sheep was assessed.
Five groups of anaesthetised adult merino sheep (35-45 kg wethers) were examined:
Anaesthesia was induced by intravenous thiopentone sodium (15 mg/kg) and following tracheal intubation was maintained by isoflurane (1.5-2%). A catheter was inserted in the right facial artery for arterial blood sampling and monitoring arterial pressure. Intravenous infusions were made via a catheter inserted into the jugular vein. The heart was exposed through a left thoracotomy performed at the fourth intercostal space. A 4F catheter-tipped manometer was inserted through the left atrium into the left ventricle to measure left ventricular pressure (LVP). An additional silastic cannula was inserted into the left atrial appendage for the injection of lignocaine and for infusion of Evans Blue. The left anterior descending coronary artery (LAD) was dissected from the epicardium immediately distal to its second diagonal branch, and a transit-time 2 mm flow probe was placed around it to monitor the LAD blood flow. A silk suture was passed under the LAD proximal to the probe and both ends of the silk were threaded through a plastic tube to form a vascular snare.
The animals were allowed to stabilise for 10-15 minutes after the completion of the surgical procedure. Sheep were then randomly divided into different treatment groups. All sheep had 30 minute baseline recording followed by 1 hour ischaemia and 3 hours reperfusion.
During the course of the experiment, haemodynamic measurements were recorded at 5 minute intervals and blood samples were taken at designated time-points. After 30 minutes of ischaemia, flavonol treatment was administered. DiOHF was dissolved in 2 ml DMSO plus 14 ml polyethylene glycol:water (1:1). DiOHF3HA was dissolved in 20 ml 0.1M Na2CO3. The drugs were given at 1 ml/min i.v. The two doses of DiOHF3HA (2.7 mg/kg and 6.6 mg/kg) were chosen to achieve equivalent molar doses to the parent DiOHF compound (at 2 mg/kg and 5 mg/kg, respectively). […] Lignocaine was used, as required, to ameliorate arrhythmias.
The area of myocardium at risk and infarct size were delineated by Evan's blue and triphenyltetrazolium chloride (TTC) staining. After 3 hours of reperfusion, the LAD was re-occluded at the original occlusion site. Immediately after intravenous injection of pentobarbitone (100 mg kg^−1) to arrest the heart, Evan's blue dye (1.5%, 40 ml) was injected into the left atrium to define the myocardium at risk. The heart was rapidly removed and the left ventricle was sliced into transverse sections about 1 cm thick. The unstained risk area was traced onto the same transparencies. The sections were then incubated in 0.1 M sodium phosphate buffer containing 1% TTC for 20 min (37° C., pH 7.4). The infarcted area was traced onto transparencies. The area of myocardium at risk, and infarct size, were measured by computerised planimetry. The former was expressed as a percentage of total left ventricular volume (AR/LV %) and infarct size was expressed as a percentage of the area of myocardium at risk (IS/AR %).
Arterial blood samples (5 ml) were collected into chilled heparinised tubes at baseline, during ischaemia and at three time points during the reperfusion period (1 hour, 2 hour and 3 hour). Following centrifugation at 4° C., plasma samples were stored at −20° C. until measurement to determine levels of lactate dehydrogenase and creatinine kinase.

[1] = test system: endothelium intact aortic rings; test: Ca2+-induced contraction of rat aortic rings in Ca2+-free high-K+ solution; assay type: cell-based
Experimental: To determine the effect of flavonoids on responses to the influx of extracellular Ca^2+, contractile responses to exogenous application of Ca^2+ were examined in the presence of flavonoids in Ca^2+-free high-K^+ solution (60 mM, KPSS). Aortic rings were initially equilibrated at a resting tension of 1 g in normal Ca^2+-free PSS for 45 minutes. The bath medium was then replaced with Ca^2+-free KPSS for 45 minutes to determine a reference contraction to Ca^2+ (3×10^−3 M). Following a 30 minute re-equilibration period with Ca^2+-free PSS, the cumulative contractile responses to Ca^2+ (10^−5−3×10^−3 M) were determined in KPSS in the presence of a range of concentrations (10^−8-10^−4 M) of vehicle, 3′,4′-dihydroxyflavonol, 3-hydroxyflavone-3-hemiadipate, 3′,4′-dihydroxy-3-hemiadipate, 3-hydroxyflavone-3-phosphate. A 20 minute incubation period was allowed for the flavonoids before examining the responses to Ca^2+.
To determine the effect of flavonoids on responses to the influx of extracellular Ca^2+, contractile responses to exogenous application of Ca^2+ were examined in the presence of flavonoids in Ca^2+-free high-K^+ solution (60 mM, K+-PSS). Aortic rings were initially equilibrated at a resting tension of 1 g in Ca^2+-free PSS for 45 minutes. The bath medium was then replaced with Ca^2+-free K+-PSS for 45 minutes to determine a reference contraction to added Ca^2+ (3 mM). Following a 30 minute re-equilibration period with Ca^2+-free PSS, the cumulative contractile responses to Ca^2+ (10^−5−3×10^−3 M) were determined in K^+ PSS in the presence of vehicle (0.1% DMSO), or a range of concentrations (10^−7-10^−4 M) of 3′-hydroxyflavonol, F3HA, DiOHF3HA or F3P. A 20 minute incubation period was allowed for the flavonoids before examining the responses to Ca^2+. Experiments were conducted in the presence and absence of BuCHE (1000 U/L) to cleave the adipate in F3HA and DiOHF3HA. In experiments using F3P, phosphatase (1000 U/L) was used in some experiments to cleave the phosphate.

[2] = 30 min after DiOHF3HA 3 mg/kg iv

SMILES | PE-induced increase in arterial pressure (anaesthetised rats; [2]) | depressor response to ACh (anaesthetised rats; [2]) | change in heart rate (HR) (anaesthetised rats) | change in mean arterial pressure (MAP) (anaesthetised rats) | regression of LAD flow after reperfusion hyperperfusion (anaesthetised sheep; 6.6 mg/kg vs control) | haemodynamic indices (arterial pressure, HR, LV-EDP, dP/dtmax) during infusion (anaesthetised sheep; 20-min i.v. infusion, 6.6 mg/kg) | increase in plasma creatine kinase (anaesthetised sheep; after 1 hour ischaemia and 3 hours reperfusion) [U/L] | increase in plasma lactate dehydrogenase (anaesthetised sheep; after 1 hour ischaemia and 3 hours reperfusion, n=4) [U/L] | effect on infarct size / cardioprotection (anaesthetised sheep) | effect on infarct size / cardioprotection (anaesthetised sheep; listed as Adipate) | infarct size normalized to the area at risk (IS/AR) (anaesthetised sheep) [%] | Maximum Contraction (percent 3 mM Ca^2+) ([1]; 10^−4 M + BuCHE) | Maximum Contraction (percent 3 mM Ca^2+) ([1]; 10^−4 M, without BuCHE) | effect on Ca^2+-induced contraction ([1]; alone, highest concentration 10^−4 M) | effect on Ca^2+-induced contraction ([1]; alone, over the concentration range tested) | effect on Ca^2+-induced contraction ([1]; in the presence of BuCHE or phosphatase (1000 U/L))
O=C(O)CCCCC(=O)Oc1c(-c2ccc(O)c(O)c2)oc2ccccc2c1=O [DiOHF3HA, 3′,4′-dihydroxyflavone-3-hemiadipate] | diminished; also recorded: attenuated the PE-induced increase in arterial pressure | significantly enhanced the depressor response to ACh | dose-dependent decrease in HR; also recorded: dose-dependent decreases; also recorded: concentration dependent decreases | dose-dependent decrease in MAP; also recorded: dose-dependent decreases; also recorded: concentration dependent decreases | more rapid | did not alter haemodynamic indices; also recorded: unchanged | 1579±936 | 67±32 | dose-related reduction in infarct size; also recorded: equivalent degree of cardioprotection to the parent compound | significant difference in infarct size | 64 | 35 ± 6 | 101 ± 1 | slight Ca2+ inhibitory action | little effect on calcium-induced contraction | markedly enhanced the inhibitory effect; also recorded: equivalent inhibitory effect to DiOHF; also recorded: inhibit calcium-induced contraction
O=c1c(O)c(-c2ccc(O)c(O)c2)oc2ccccc12 [DiOHF, 3′,4′-Dihydroxyflavonol, reference compound] |  |  | dose-dependent decrease in HR | dose-dependent decreases in MAP |  |  |  |  |  |  | 73 |  | 18 ± 2 |  |  | 
